For the assay, the target named is T1, human MPO (Homo sapiens, UniProt P05164).
T1 sequence (P05164 49-745): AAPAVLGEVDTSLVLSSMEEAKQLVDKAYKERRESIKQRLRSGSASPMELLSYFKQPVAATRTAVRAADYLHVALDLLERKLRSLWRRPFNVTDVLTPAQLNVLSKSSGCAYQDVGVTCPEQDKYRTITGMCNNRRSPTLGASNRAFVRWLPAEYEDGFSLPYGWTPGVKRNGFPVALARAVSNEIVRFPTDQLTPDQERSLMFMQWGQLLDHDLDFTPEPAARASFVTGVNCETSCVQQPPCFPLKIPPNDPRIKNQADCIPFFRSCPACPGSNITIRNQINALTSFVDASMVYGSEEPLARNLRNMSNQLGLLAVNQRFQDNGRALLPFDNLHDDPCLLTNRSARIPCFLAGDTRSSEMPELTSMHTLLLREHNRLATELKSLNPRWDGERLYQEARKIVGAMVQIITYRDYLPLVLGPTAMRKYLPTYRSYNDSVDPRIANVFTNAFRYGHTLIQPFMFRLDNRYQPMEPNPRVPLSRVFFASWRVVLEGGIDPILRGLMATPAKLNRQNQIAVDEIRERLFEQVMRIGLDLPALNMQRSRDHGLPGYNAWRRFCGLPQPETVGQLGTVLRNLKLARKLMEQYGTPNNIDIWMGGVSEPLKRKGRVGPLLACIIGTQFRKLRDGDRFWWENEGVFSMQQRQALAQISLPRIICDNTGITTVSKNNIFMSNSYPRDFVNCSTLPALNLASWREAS
The assay can be described thus: MPO inhibition screen (TMB oxidation, absorbance). The format is biochemical. The settings on record: in the presence of tyrosine (final concentration 8 μM); human MPO 2.5 nM. As for the experimental part: Methods for the determination of MPO inhibitory activity are disclosed in patent application WO 02/090575. The pharmacological activity of compounds according to the invention was tested in the following screen in which the compounds were either tested alone or in the presence of added tyrosine:
Assay buffer: 20 mM sodium/potassium phosphate buffer pH 6.5 containing 10 mM taurine and 100 mM NaCl.
Developing reagent: 2 mM 3,3′,5,5′-tetramethylbenzidine (TMB), 200 μM KI, 200 mM acetate buffer pH 5.4 with 20% DMF.
To 10 μl of diluted compounds in assay buffer, 40 μl of human MPO (final concentration 2.5 nM), with or without 20 μM tyrosine (final concentration, if present, 8 μM), was added and the mixture was incubated for 10 minutes at ambient temperature. Then 50 μl of H2O2 (final concentration 100 μM), or assay buffer alone as a control, were added. After incubation for 10 minutes at ambient temperature, the reaction was stopped by adding 10 μl 0.2 mg/ml of catalase (final concentration 18 μg/ml). The reaction mixture was left for an additional 5 minutes before 100 μl of TMB developing reagent was added. The amount of oxidised 3,3′,5,5′-tetramethylbenzidine formed was then measured after about 5 minutes using absorbance spectroscopy at about […]. IC50 values were then determined using standard procedures.

`O=c1[nH]c(=S)n(-c2cccc(OC(F)(F)F)c2)c2nc[nH]c12` [Example 3, 2-thioxo-3-[3-(trifluoromethoxy)phenyl]-1,2,3,7-tetrahydro-6H-purin-6-one]: the IC50 was 2.75 µM. For `O=c1[nH]c(=S)n(-c2cnc3ccccc3c2)c2nc[nH]c12` [Example 8, 3-quinolin-3-yl-2-thioxo-1,2,3,7-tetrahydro-6H-purin-6-one] the value was 4.47 µM.

The values above are taken from US20090286813A1, “Thioxanthine Derivatives and Their Use as Inhibitors of MPO” (ASTRAZENECA AB, priority 2006, published 2009).
